According to patent US20250114367A1, “METHOD OF TREATING HAIR LOSS DISORDERS” (Sun Pharmaceutical Industries, Inc., priority 2023, published 2025):

What was measured:
Type in all cases: in vivo, human
[1] = test system: subjects with AA; experiment: SALT change at week 8, 8 mg BID versus 16 mg once daily
Procedure: A decrease in SALT score indicates increased hair growth. Decreases in the LS mean SALT scores were initially observed at Week 4. […] At week 8, the LS mean change from baseline SALT score was higher in subjects treated with deuruxolitinib 8 mg BID (8.6%) than in subjects treated with 16 mg once daily (QD) (2.7%).

[2] = test system: adult subjects with moderate to severe AA; experiment: Phase III trial: Patient Global Impression of Severity (PGI-S)
Procedure: The PGI-S was assessed by the subject and considered the severity of his/her alopecia areata at the time of assessment. The subject selected 1 of 7 numeric choices representing “Among the most extreme hair loss” to “Normal, no hair loss.” The definitions of the numeric choices is as follows: 1=normal, no hair loss; 2=borderline hair loss; 3=mild hair loss; 4=moderately hair loss; 5=marked hair loss; 6=severe hair loss; 7=among the most extreme hair loss.
(§1) A Phase III trial was conducted to assess the efficacy and safety of CTP-543 in adult subjects with moderate to severe AA. Approximately 440 adult male and female subjects 18 to 65 years of age, inclusive, with moderate to severe AA participated in the study. Subjects with definitive diagnosis of AA, and at least 50% hair loss, as defined by a SALT score ≥50, who met all of the inclusion criteria and none of the exclusion criteria participated in the study.
The Screening Period lasted up to 28 days prior to initiation of study drug. […] Randomization was stratified by scalp hair loss into 1 of the following 2 categories: 1) partial scalp hair loss (SALT ≥50 and <95), 2) complete or near complete scalp hair loss (SALT ≥95).
Additional secondary efficacy endpoints included the following: • Relative change in SALT scores from baseline at Weeks 4, 8, 12, 16, 20, and 24. • Percentage of responders (defined as “much improved” or “very much improved”) using the Clinical Global Impression of Improvement (CGI-I) at Weeks 12, 16, 20, and 24. • Percentage of responders (defined as “much improved” or “very much improved”) using the Patient Global Impression of Improvement (PGI-I) at Weeks 12, 16, 20, and 24. • Change from baseline in the Clinical Global Impression of Severity (CGI-S) at Weeks 12, 16, 20, and 24. • Change from baseline in the Patient Global Impression of Severity (PGI-S) at Weeks 12, 16, 20, and 24. • Change from baseline on the Brigham Eyebrow Tool for Alopecia (BETA) score at Weeks 12 and 24. • Change from baseline on the Brigham Eyelash Tool for Alopecia (BELA) score at Weeks 12 and 24. • Percentage of subjects achieving at least a 75% relative reduction in SALT score from baseline at Weeks 12 and 24. • Percentage of subjects achieving at least a 90% relative reduction in SALT score from baseline at Weeks 12 and 24. • Percentage of responders (defined as “satisfied” or “very satisfied”) on the SPRO scale at Weeks 12, 16, and 20. • Change from baseline in the SPRO scale at Weeks 12, 16, 20, and 24. • Percentage of subjects achieving a ≥2-point change from baseline in the SPRO scale at Weeks 12, 16, 20, and 24. • Change from baseline on the individual items of the Hair Quality Patient Reported Outcome (QPRO) scale at Weeks 12, 16, 20, and 24. • Change from baseline in the depression scale of the Hospital Anxiety and Depression Scale (HADS) at Week 24. • Change from baseline in the anxiety scale of the HADS at Week 24. • Percentage of subjects achieving an absolute SALT score of ≤20 at Week 4. • Percentage of subjects achieving an absolute SALT score of ≤10 at Week 24
A decrease from baseline indicates improvement (impression is decreased severity). The LS mean treatment group difference was in favor of the CTP-543 groups over the placebo group at all timepoints evaluated. […] Detailed data for each time point are described below.

[3] = test system: adult subjects with moderate to severe AA; experiment: Phase III trial: Brigham Eyelash Tool for Alopecia (BELA)
Procedure: The BELA is a clinician-rated scale developed by dermatologists at Brigham and Women's Hospital that assesses the total eyelash hair present Manjaly, P. et al., Development and validation of the Brigham Eyelash Tool for Alopecia (BELA): A measure of eyelash alopecia areata, J Am Acad Dermatol (2021) 1-2. The BELA is calculated based on grade values (range 0 to 3) and distribution. The BELA score is the sum of the individual scores for the left and right eyes (range 0 (absent) to 6). The same expert panel of certified raters at Brigham and Women's Hospital who performed the BETA assessment also performed central readings based on photographs of the eyelashes and determined a score for each subject with eyelash involvement following each visit where an assessment of eyelash hair presence was assessed. The BELA was performed at baseline, Week 12, and Week 24. If a subject was unable to attend an in-person clinic visit due to COVID-19, the BELA may not have been performed due to the inability to take photographs of the eyelashes.
as §1
The Screening Period lasted up to 28 days prior to initiation of study drug. […] Randomization was stratified by scalp hair loss into 1 of the following 2 categories: 1) partial scalp hair loss (SALT ≥50 and <95), 2) complete or near complete scalp hair loss (SALT ≥95). […]

[2H]C1([2H])C([C@@H](CC#N)n2cc(-c3ncnc4[nH]ccc34)cn2)C([2H])([2H])C([2H])([2H])C1([2H])[2H] [CTP-543, (R)-3-(4-(7H-pyrrolo[2,3-d]pyrimidin-4-yl)-1H-pyrazol-1-yl)-3-(cyclopentyl-2,2,3,3,4,4,5,5-d8) propanenitrile]
LS mean change from baseline SALT score ([1]; 8 mg BID): 8.6% | LS mean change from baseline SALT score ([1]; 16 mg once daily (QD)): 2.7% | PGI-S, LS mean change from baseline ([2]; Week 12, 8 mg BID): −1.6 | PGI-S, LS mean change from baseline ([2]; Week 12, 12 mg BID): −1.8 | PGI-S, LS mean change from baseline ([2]; Week 16, 12 mg BID): −2.0 | PGI-S, LS mean change from baseline ([2]; Week 20, 8 mg BID): −2.0 | PGI-S, LS mean change from baseline ([2]; Week 20, 12 mg BID): −2.2 | PGI-S, LS mean change from baseline ([2]; Week 24, 8 mg BID): −2.2 | PGI-S, LS mean change from baseline ([2]; Week 24, 12 mg BID): −2.5 | BELA score, LS mean change from baseline ([3]; Week 12, 8 mg BID): 0.9 | BELA score, LS mean change from baseline ([3]; Week 12, 12 mg BID): 1.0 | BELA score, LS mean change from baseline ([3]; Week 24, 8 mg BID): 1.4 | BELA score, LS mean change from baseline ([3]; Week 24, 12 mg BID): 1.5
